The text below walks through data of PubChem BioAssay AID2060342 (Molecular Pharmacology Branch, DTP, NCI, 2025).

The test concerns 171881-019-R-J1-PDC multicell spheroid viability. The experiment in a line: Anticancer human tumor 171881-019-R-J1-PDC patient-derived invasive breast carcinoma cell line growth inhibition [IpAb]. Particulars: for viability, T/C: stronger effect = lower value. The text has this: Combinatorial screen of targeted agents with ipatasertib and abemaciclib in multi-cell type tumor spheroids
A high-throughput screen of multi-cell type tumor spheroids was designed to identify active combinations of targeted small molecules and ipatasertib or abemaciclib. Complex spheroids include a stromal component modeled by human endothelial cells (HUVEC) and fibroblasts modeled by human mesenchymal stem cells (MSCs). The concentration ranges selected for each drug and investigational agent were based upon clinically achievable concentrations if the clinical Cmax of the agent was known.
Compounds. The drugs and investigational agents: ipatasertib (NSC767898), abemaciclib(NSC768073), selumetinib (NSC741078), trametinib (758246), adavosertib (NSC754352), everolimus (NSC733504), sapanisertib (NSC764658), vemurafenib (NSC761431), venetoclax (NSC766270), copanlisib (NSC809693), apelisib (NSC765974), palbociblib (NSC758247), vemurafenib (NSC761431), dabrafenib (NSC764134), ravoxertinib (NSC781343), BMS-387032 (NSC767048), sotorasib (NSC818433), talazoparib (NSC767125) and afursertib (NSC778305), were obtained from the National Cancer Institute (NCI) Developmental Therapeutics Program Chemical Repository. The FDA-approved anticancer drug set is available from the NCI Developmental Therapeutics Program. […] The stock solutions were prepared in dimethyl sulfoxide (DMSO, Sigma-Aldrich, St. Louis, MO, cat. D2650) at 800-fold the tested concentration and stored at -70 degrees C prior to their use. All drugs and investigational agents were tested over a range starting from a high concentration at or near the clinical Cmax and decreasing in half-log increments. If the clinical Cmax for an agent had not been determined, the highest concentration tested was 10 microM.
NCI60 Cell Culture. NCI60 cell lines were obtained from the NCI Developmental Therapeutics Program Tumor Repository. For each lot of cells, the Repository performed Applied Biosystems AmpFLSTR Identifiler testing with PCR amplification to confirm consistency with the published Identifier STR profile for each cell line. Cells were kept in continuous culture for no more than 20 passages. The optimal seeding densities for each of the cell lines at each time point assessed were determined prior to performing the concentration response studies. Briefly, the NCI60 human tumor lines were grown as monolayers in RPMI 1640 medium supplemented with 10% FBS and 2 mmol/L L-glutamine.
An additional 9 lines were from the NCI60 cell line panel including MDA-MB-231 breast carcinoma, MDA-MB-468 breast carcinoma, MCF7 breast carcinoma, Hs578T breast carcinoma, MALME-3M melanoma, SK-MEL-2 melanoma, SK-OV-3 ovarian carcinoma, DU-145 prostate carcinoma, PC-3 prostate carcinoma, all cell lines along with major genetic alterations are listed on Table 2. Pooled donor human umbilical vein endothelial cells (HUVEC, Lonza, cat. CC-2519) and human mesenchymal stem cells (hMSC, Lonza, cat. PT-2501) were purchased from Lonza (Walkersville, MD).
PDMR cell lines were grown in complete medium (DC medium): Dulbecco's modified Eagle's medium (DMEM)/F12 supplemented with 5% fetal bovine serum (FBS), 2 mM L-glutamine, 100 U/mL penicillin and 100 µg/ml streptomycin, 0.4 µg/ml hydrocortisone, 10 ng/ml epidermal growth factor (EGF) recombinant human protein, 24 µg/mL adenine, and 0.1 mg/mL primocin. During culture from frozen stock vials, PDMR cells were cultured in the same medium containing 10 µM Y-27632 (see Table 3). The PDCs were cultured in complete DMEM/F12 media without 10 microM Y-27632 dihydrochloride for at least two passages prior to the screen. The pooled donor HUVEC and hMSC were cultured in endothelial cell growth medium 2 (PromoCell, Heidelberg, Germany, cat. C-22011) and mesenchymal stem cell growth medium 2 (PromoCell, cat. C-28009), respectively. For all experiments, HUVEC and hMSC were used at passages </=5.
[…]

The mark [1] stands for this setting: compound alone, run of 05/18/2021.

Structures are written as SMILES. pIC50: −log10 of the molar value. Where “and” joins values, the source holds several entries; their conditions need not be identical. Identical values can stand only once.
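Also: spheroids exposed to the agents for seven days before readout.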

With `C=CC(=O)N1CCN(c2nc(=O)n(-c3c(C)ccnc3C(C)C)c3nc(-c4c(O)cccc4F)c(F)cc23)C(C)C1` (stereo not given), the viability, T/C is, setting by setting: (compound 0.0316 µM) 98.7% and 101%; (compound 0.1 µM) 92.3% and 95.8%; (compound 0.316 µM) 99% and 106%; (compound 1 µM) 94.1% and 95.3%; (compound 3.16 µM) 93.6% and 84.7%; (compound 10 µM) 35.2% and 31.8%. In addition, for the setting “curve of compound”, the pIC50 was 5.13 and 5.17.

On to `C=CCn1c(=O)c2cnc(Nc3ccc(N4CCN(C)CC4)cc3)nc2n1-c1cccc(C(C)(C)O)n1`, for which the viability, T/C is, setting by setting: (compound 0.0316 µM) 89.9% and 111%; (compound 0.1 µM) 106% and 111%; (compound 0.316 µM) 104% and 133%; (compound 1 µM) 35.1% and 43.7%; (compound 3.16 µM) 28.2% and 27.2%; (compound 10 µM) 27.9% and 24.9%. In addition, the pIC50 (curve of compound) was 6.11 and 6.10.

As to `CC(=O)c1c(C)c2cnc(Nc3ccc(N4CCNCC4)cn3)nc2n(C2CCCC2)c1=O`, the viability, T/C reads like this: (compound 0.000949 µM) 103% and 97.8%; (compound 0.003 µM) 92.6% and 92.2%; (compound 0.00949 µM) 102% and 103%; (compound 0.03 µM) 99.4% and 94%; (compound 0.0949 µM) 105% and 96.1%; (compound 0.3 µM) 115% and 105%. In addition, the pIC50 (curve of compound) was below 6.52.

As for `CC(C)(C)c1cnc(CSc2cnc(NC(=O)C3CCNCC3)s2)o1`, the viability, T/C was 96% and 96.9% (compound 0.00949 µM); 109% and 96.1% (compound 0.03 µM); 116% and 119% (compound 0.0949 µM); 20.1% and 3.63% (compound 0.3 µM); 0.52% and 0.41% (compound 0.949 µM); 0.65% and 0.81% (compound 3 µM). In addition, the pIC50 (curve of compound) is 6.69 and 6.75.

Take `CC(C)NCC(C(=O)N1CCN(c2ncnc3c2C(C)CC3O)CC1)c1ccc(Cl)cc1` (stereo not given): the viability, T/C is, setting by setting: (compound 1 µM) 27.9% [middle of 13 runs]; (compound 3.16 µM) 11.2% [middle of 13 runs]; (compound 10 µM) 6.7% [middle of 12 runs]. For the same compound, under setting [1], the half-maximal inhibitory concentration (IC50) is 618 nM [middle of 13 runs].

As to `CC(C)n1nc(-c2ccc3oc(N)nc3c2)c2c(N)ncnc21`, the viability, T/C (compound 0.000316 µM) was 109% and 103%; the viability, T/C (compound 0.001 µM) was 114% and 106%; the viability, T/C (compound 0.00316 µM) is 82.1% and 64%; the viability, T/C (compound 0.01 µM) is 28.1% and 18.6%; the viability, T/C (compound 0.0316 µM) was 4.54% and 3.87%; the viability, T/C (compound 0.1 µM) is 2.72% and 2.73%. Moreover, for the setting “curve of compound”, the pIC50 was 8.20 and 8.34.

As to `CC1(C)CCC(CN2CCN(c3ccc(C(=O)NS(=O)(=O)c4ccc(NCC5CCOCC5)c([N+](=O)[O-])c4)c(Oc4cnc5[nH]ccc5c4)c3)CC2)=C(c2ccc(Cl)cc2)C1`, the viability, T/C runs as follows: (compound 0.0316 µM) 107% and 93.6%; (compound 0.1 µM) 102% and 84.1%; (compound 0.316 µM) 93.8% and 78.3%; (compound 1 µM) 92.5% and 66.3%; (compound 3.16 µM) 89.8% and 87.8%; (compound 10 µM) 23.9% and 16.5%. Moreover, under “curve of compound”, the pIC50 was 5.20 and 5.26.

Consider `CCCS(=O)(=O)Nc1ccc(F)c(C(=O)c2c[nH]c3ncc(-c4ccc(Cl)cc4)cc23)c1F`, for which the viability, T/C is, setting by setting: (compound 0.0316 µM) 111% and 90.2%; (compound 0.1 µM) 95.2% and 83%; (compound 0.316 µM) 86.9% and 93.1%; (compound 1 µM) 90.1% and 80.4%; (compound 3.16 µM) 78.3% and 72.6%; (compound 10 µM) 76.2% and 87.7%. For the same compound, the pIC50 (curve of compound) was below 5.00.

Take `CCN1CCN(Cc2ccc(Nc3ncc(F)c(-c4cc(F)c5nc(C)n(C(C)C)c5c4)n3)nc2)CC1`: the viability, T/C by setting is: (compound 0.01 µM) 91.6% [middle of 13 runs]; (compound 0.0316 µM) 105% [middle of 13 runs]; (compound 0.1 µM) 116% [middle of 13 runs]; (compound 1 µM) 149% [middle of 13 runs]. The negative-log IC50 (pIC50) under setting [1] is below 6.00.

For the compound `COc1c(OCCCN2CCOCC2)ccc2c3n(c(=NC(=O)c4cnc(N)nc4)nc12)CCN3`, the viability, T/C is 109% and 115% (compound 0.00316 µM); 65.8% and 77.7% (compound 0.01 µM); 17.4% and 33.4% (compound 0.0316 µM); 4.32% and 7.03% (compound 0.1 µM); 1% and 1.49% (compound 0.316 µM); 1.51% and 1.79% (compound 1 µM). The pIC50 (curve of compound) is 7.84 and 7.69.

In the case of `Cc1nc(NC(=O)N2CCCC2C(N)=O)sc1-c1ccnc(C(C)(C)C(F)(F)F)c1` (stereo not given), the viability, T/C is, setting by setting: (compound 0.0316 µM) 117% and 108%; (compound 0.1 µM) 128% and 98.1%; (compound 0.316 µM) 84.2% and 67.8%; (compound 1 µM) 36.8% and 38.8%; (compound 3.16 µM) 16.5% and 12.6%; (compound 10 µM) 2.78% and 1.93%. Moreover, the pIC50 (curve of compound) was 6.13 and 6.19.

As to `Cn1cnc2c(F)c(Nc3ccc(Br)cc3Cl)c(C(=O)NOCCO)cc21`, the viability, T/C (compound 0.00949 µM) is 113% and 108%; the viability, T/C (compound 0.03 µM) was 106% and 96.2%; the viability, T/C (compound 0.0949 µM) was 124% and 98%; the viability, T/C (compound 0.3 µM) is 117% and 99.3%; the viability, T/C (compound 0.949 µM) is 70.1% and 49.4%; the viability, T/C (compound 3 µM) is 18.2% and 11.6%. For the same compound, the pIC50 (curve of compound) is 5.83 and 6.03.

In the case of `Cn1ncc(Cl)c1-c1cc(C(=O)NC(CN)Cc2cccc(F)c2)sc1Cl` (stereo not given), the viability, T/C reads like this: (compound 0.0316 µM) 107% and 112%; (compound 0.1 µM) 64.8% and 67.2%; (compound 0.316 µM) 29.7% and 27.4%; (compound 1 µM) 11.8% and 13.5%; (compound 3.16 µM) 3.57% and 3.17%; (compound 10 µM) 0.84% and 0.66%. Under “curve of compound”, the negative logarithm of the IC50 (pIC50) is 6.79 and 6.78.

Take `Cn1nccc1Nc1nccc(-c2ccn(C(CO)c3ccc(Cl)c(F)c3)c(=O)c2)n1` (stereo not given): the viability, T/C reads like this: (compound 0.0316 µM) 107% and 117%; (compound 0.1 µM) 108% and 112%; (compound 0.316 µM) 77.1% and 79%; (compound 1 µM) 39.2% and 41.8%; (compound 3.16 µM) 22.2% and 22.1%; (compound 10 µM) 19.1% and 18.8%. For the same compound, the pIC50 (curve of compound) was 6.15 and 6.12.

Take `Cn1ncnc1[C@H]1c2n[nH]c(=O)c3cc(F)cc(c23)N[C@@H]1c1ccc(F)cc1`: the viability, T/C by setting is: (compound 0.000316 µM) 100% and 93.4%; (compound 0.001 µM) 111% and 93.9%; (compound 0.00316 µM) 116%; (compound 0.01 µM) 108% and 101%; (compound 0.0316 µM) 109% and 111%; (compound 0.1 µM) 128% and 123%. The pIC50 (curve of compound) was below 7.00.

The viability, T/C is the ratio of treated to control. In general, pIC50 refers to −log10 of the IC50, conventionally taken in molar units. By IC50 is commonly meant the concentration that gives 50% inhibition.
